Measurements reported in PubChem BioAssay AID743178 (NMMLSC, 2013).
The source made the active and inactive calls.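 Rule for the calls: active = percent MAC1 positive of at least 15% at the highest dose, plus EC50 under 10 µM; inactive = the rest.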

Key:
[1] = myeloid differentiation promoters in U937 leukemia cells, SAR follow-up, cell-based, MAC1 flow cytometry, set 1 (AID 743178); details: U937 myeloid differentiation, MAC1 flow cytometry, 4 d; at 10 µM (top of the series)
[2] = test system: U937 myeloid differentiation, MAC1 flow cytometry, 4 d; experiment: as above

EC50 [2] | SMILES | percent MAC1 positive [1]
 | COc1ccccc1C(C)NC(=O)CCNC(=O)c1ccc(Cl)cc1 (centres undefined) | 0.779% (inactive)
 | CC(=O)NCCC(=O)N[C@@H]1CCCc2ccccc21 | 0.776% (inactive)
 | C[C@@H](NC(=O)CCNC(=O)c1ccc(Cl)cc1)c1ccccc1 | 1.51% (inactive)
 | O=C(CCNC(=O)c1ccccc1)N[C@@H]1CCCc2ccccc21 | 1.8% (inactive)
 | O=C(CNC(=O)c1ccc(OC(F)(F)F)cc1)N[C@@H]1CCCc2ccccc21 | 1.56% (inactive)
 | CC(NC(=O)CCNC(=O)c1ccc(Cl)cc1)c1ccc2c(c1)OCO2 (centres undefined) | 1.17% (inactive)
 | O=C(CNC(=O)c1ccc(Cl)c(Cl)c1)N[C@@H]1CCCc2ccccc21 | 1.68% (inactive)
 | O=C(CCCNC(=O)c1ccc(Cl)cc1)N[C@@H]1CCCc2ccccc21 | 1.04% (inactive)
 | O=C(Cc1ccc(Cl)cc1)NCCC(=O)N[C@@H]1CCCc2ccccc21 | 13.3% (inactive)
 | O=C(CCNC(=O)c1ccc(Cl)cc1)NC1CCCCC1 | 1.63% (inactive)
 | O=C(CCCNC(=O)c1ccc(Cl)c(Cl)c1)N[C@@H]1CCCc2ccccc21 | 1.27% (inactive)
 | CC(NC(=O)CCNC(=O)c1ccc(Cl)cc1)c1ccc(F)cc1 (centres undefined) | 3.42% (inactive)
3.4 µM | O=C(CCNC(=O)c1ccc(Cl)c(Cl)c1)N[C@@H]1CCCc2ccccc21 | 
 | O=C(CCNC(=O)c1ccc(Cl)cc1)N[C@H]1CCCc2ccccc21 | 2.12% (inactive)
 | O=C(CCNC(=O)c1ccc(Cl)cc1)N[C@@H]1CCc2ccccc21 | 6% (inactive)
 | O=C(CCCNC(=O)c1ccc(C(F)(F)F)cc1)N[C@@H]1CCCc2ccccc21 | 2.46% (inactive)
 | CC(c1ccccc1)N(C)C(=O)CCNC(=O)c1ccc(Cl)cc1 (centres undefined) | 0.788% (inactive)
 | COc1ccc(C(=O)NCCC(=O)N[C@@H]2CCCc3ccccc32)cc1 | 28.1% (inactive)
 | O=C(CNC(=O)c1ccc(C(F)(F)F)cc1)N[C@@H]1CCCc2ccccc21 | 1.08% (inactive)
 | O=C(CCCNC(=O)c1ccc(OC(F)(F)F)cc1)N[C@@H]1CCCc2ccccc21 | 0.912% (inactive)

EC50 [2] | SMILES | percent MAC1 positive [1]
 | CC(C)(C)OC(=O)NCCC(=O)N[C@H]1CCCc2ccccc21 | 1.16% (inactive)
 | O=C(CNC(=O)c1ccc(Cl)cc1)N[C@@H]1CCCc2ccccc21 | 1.65% (inactive)
 | Cc1ccc(C)c(OCCn2cc(C(=O)O)c3ccccc32)c1 | 0% (inactive)
 | CC(C)(C)OC(=O)NCCC(=O)N[C@@H]1CCCc2ccccc21 | 1.18% (inactive)
2.07 µM | O=C(CCNC(=O)c1ccc(OC(F)(F)F)cc1)N[C@@H]1CCCc2ccccc21 | 
 | O=C(NC1CCc2ccccc21)C1CCCN(C(=O)c2ccc(Cl)cc2)C1 (centres undefined) | 1.16% (inactive)
 | N#Cc1ccc(C(=O)NCCC(=O)N[C@@H]2CCCc3ccccc32)cc1 | 0.711% (inactive)
 | O=C(O)c1ccccc1OCc1ccccc1Br | 0% (inactive)
 | NCCC(=O)N[C@@H]1CCCc2ccccc21 | 1.1% (inactive)
4.57 µM | O=C(CCNC(=O)c1ccc(Cl)cc1)NC1CCCc2ccccc21 (centres undefined) | 
7.94 µM | O=C(CCNC(=O)c1cccc(Cl)c1)N[C@@H]1CCCc2ccccc21 | 
 | CC(NC(=O)C1CCCN(C(=O)c2ccc(Cl)cc2)C1)c1ccccc1 (centres undefined) | 1.23% (inactive)
 | Cc1cccc(C(=O)NCCC(=O)NC2CCCc3ccccc32)c1 (centres undefined) | 1.09% (inactive)
4.41 µM | O=C(CCNC(=O)c1ccc2c(c1)OC(F)(F)O2)N[C@@H]1CCCc2ccccc21 | 
4.21 µM | Cc1ccc(C(=O)NCCC(=O)N[C@@H]2CCCc3ccccc32)cc1 | 
2.26 µM | O=C(CCNC(=O)c1ccc(C(F)(F)F)cc1)N[C@@H]1CCCc2ccccc21 | 
 | O=C(NC1CCOc2ccccc21)C1CCCN(C(=O)c2ccc(Cl)cc2)C1 (centres undefined) | 0.843% (inactive)
 | O=C(O)c1cccnc1Nc1ccc(Cl)cc1 | 85% (inactive)
2.78 µM | O=C(CCNC(=O)c1ccc(Cl)cc1)N[C@@H]1CCCc2ccccc21 | 
